Measured values taken from publication PMC314469, “Protein Interaction Networks by Proteome Peptide Scanning” (PLoS Biology, 2004).

System: Myo5 SH3 domain
Experiment: SPOT analysis of cellulose-bound peptides (WISE), Myo5 SH3 domain (Dataset S4)
Type: binding, Saccharomyces cerevisiae
Conditions: SPOT analysis of cellulose-bound peptides probed with Myo5 SH3 domain; normalized value

SLTSLPPPPPPQFS
The normalized value in BLU units (SPOT analysis, Myo5 SH3): 7261.1 BLU
